From ChEMBL document CHEMBL3991601, “The target landscape of clinical kinase drugs” (Science, 2017) come the findings set out here.

Assay [1] concerns the target GTP-binding nuclear protein Ran (Homo sapiens, UniProt P62826).
Assay [2] concerns the target ATP-dependent RNA helicase DDX3X (Homo sapiens, UniProt O00571).
Assay [3] concerns the target Membrane-associated progesterone receptor component 1 (Homo sapiens, UniProt O00264).
Assay [4] concerns the target T1, Mitogen-activated protein kinase kinase kinase 3 (Homo sapiens, UniProt Q99759).
T1 sequence (Q99759 whole entry): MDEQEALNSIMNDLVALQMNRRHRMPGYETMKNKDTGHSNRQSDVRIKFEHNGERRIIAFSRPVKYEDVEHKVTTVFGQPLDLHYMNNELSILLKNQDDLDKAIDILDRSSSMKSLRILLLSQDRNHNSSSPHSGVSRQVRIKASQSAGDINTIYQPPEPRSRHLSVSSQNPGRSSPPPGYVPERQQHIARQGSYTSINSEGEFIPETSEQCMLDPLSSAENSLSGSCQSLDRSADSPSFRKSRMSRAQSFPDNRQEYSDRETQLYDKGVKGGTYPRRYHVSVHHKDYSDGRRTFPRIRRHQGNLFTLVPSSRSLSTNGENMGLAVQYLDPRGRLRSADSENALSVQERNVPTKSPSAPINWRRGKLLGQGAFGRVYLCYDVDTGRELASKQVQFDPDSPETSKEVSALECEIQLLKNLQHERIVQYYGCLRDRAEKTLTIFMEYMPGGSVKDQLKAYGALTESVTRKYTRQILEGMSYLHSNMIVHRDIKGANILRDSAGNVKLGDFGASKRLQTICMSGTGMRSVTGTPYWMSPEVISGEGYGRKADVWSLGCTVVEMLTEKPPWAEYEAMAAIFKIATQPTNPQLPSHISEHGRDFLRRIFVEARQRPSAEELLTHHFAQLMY

In assay [5] the target is T2, Serine/threonine-protein kinase D2 (Homo sapiens, UniProt Q9BZL6).
T2 sequence (Q9BZL6 whole entry): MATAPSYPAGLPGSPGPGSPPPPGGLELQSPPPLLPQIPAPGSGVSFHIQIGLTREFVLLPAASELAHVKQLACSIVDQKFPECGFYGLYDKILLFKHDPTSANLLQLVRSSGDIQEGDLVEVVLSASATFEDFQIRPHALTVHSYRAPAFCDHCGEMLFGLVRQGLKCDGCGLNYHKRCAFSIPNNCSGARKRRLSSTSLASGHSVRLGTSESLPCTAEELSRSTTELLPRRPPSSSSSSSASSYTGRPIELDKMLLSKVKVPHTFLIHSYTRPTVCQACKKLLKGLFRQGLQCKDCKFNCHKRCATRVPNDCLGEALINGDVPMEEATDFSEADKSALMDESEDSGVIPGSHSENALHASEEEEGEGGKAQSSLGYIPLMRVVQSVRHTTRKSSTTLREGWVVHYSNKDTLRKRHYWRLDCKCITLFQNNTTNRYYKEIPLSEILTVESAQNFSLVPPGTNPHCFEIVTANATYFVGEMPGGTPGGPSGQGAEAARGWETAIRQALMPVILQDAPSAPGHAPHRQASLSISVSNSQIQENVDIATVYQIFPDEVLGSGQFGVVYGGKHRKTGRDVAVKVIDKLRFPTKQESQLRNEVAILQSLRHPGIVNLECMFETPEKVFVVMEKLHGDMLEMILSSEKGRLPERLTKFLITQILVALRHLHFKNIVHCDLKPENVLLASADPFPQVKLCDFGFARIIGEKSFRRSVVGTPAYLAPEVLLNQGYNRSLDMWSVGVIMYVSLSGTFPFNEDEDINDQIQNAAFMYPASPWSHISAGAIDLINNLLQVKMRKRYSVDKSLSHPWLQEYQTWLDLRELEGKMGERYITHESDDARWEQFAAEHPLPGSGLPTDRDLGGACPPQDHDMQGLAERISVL

The target in assay [6] is T3, Acyl-CoA dehydrogenase family member 11 (Homo sapiens, UniProt Q709F0).
T3 sequence (Q709F0 whole entry): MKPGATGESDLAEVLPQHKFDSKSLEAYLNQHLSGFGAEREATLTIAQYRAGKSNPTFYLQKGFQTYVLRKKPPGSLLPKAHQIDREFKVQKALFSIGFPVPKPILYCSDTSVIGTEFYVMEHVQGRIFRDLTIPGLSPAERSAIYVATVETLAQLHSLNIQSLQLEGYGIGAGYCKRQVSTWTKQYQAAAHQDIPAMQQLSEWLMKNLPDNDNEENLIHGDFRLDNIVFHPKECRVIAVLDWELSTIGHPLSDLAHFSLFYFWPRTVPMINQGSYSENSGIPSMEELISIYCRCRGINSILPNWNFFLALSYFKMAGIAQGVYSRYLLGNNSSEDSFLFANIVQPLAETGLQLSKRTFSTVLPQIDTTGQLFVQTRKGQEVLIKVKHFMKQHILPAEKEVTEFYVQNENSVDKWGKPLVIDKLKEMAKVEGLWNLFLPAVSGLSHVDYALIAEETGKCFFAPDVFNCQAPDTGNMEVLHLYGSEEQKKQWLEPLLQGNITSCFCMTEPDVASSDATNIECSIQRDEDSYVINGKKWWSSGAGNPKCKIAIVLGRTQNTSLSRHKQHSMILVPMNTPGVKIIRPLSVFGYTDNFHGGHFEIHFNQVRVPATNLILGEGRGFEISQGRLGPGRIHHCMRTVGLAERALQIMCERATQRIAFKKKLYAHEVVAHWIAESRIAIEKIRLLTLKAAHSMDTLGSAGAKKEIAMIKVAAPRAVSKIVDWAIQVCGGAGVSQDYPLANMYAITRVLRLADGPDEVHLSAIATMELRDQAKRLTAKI

Activity calls are given as the source filed them.
Also: in the data inactive means no Kd found up to 30 µM.

ATP-dependent RNA helicase DDX3X, sequence (O00571 whole entry): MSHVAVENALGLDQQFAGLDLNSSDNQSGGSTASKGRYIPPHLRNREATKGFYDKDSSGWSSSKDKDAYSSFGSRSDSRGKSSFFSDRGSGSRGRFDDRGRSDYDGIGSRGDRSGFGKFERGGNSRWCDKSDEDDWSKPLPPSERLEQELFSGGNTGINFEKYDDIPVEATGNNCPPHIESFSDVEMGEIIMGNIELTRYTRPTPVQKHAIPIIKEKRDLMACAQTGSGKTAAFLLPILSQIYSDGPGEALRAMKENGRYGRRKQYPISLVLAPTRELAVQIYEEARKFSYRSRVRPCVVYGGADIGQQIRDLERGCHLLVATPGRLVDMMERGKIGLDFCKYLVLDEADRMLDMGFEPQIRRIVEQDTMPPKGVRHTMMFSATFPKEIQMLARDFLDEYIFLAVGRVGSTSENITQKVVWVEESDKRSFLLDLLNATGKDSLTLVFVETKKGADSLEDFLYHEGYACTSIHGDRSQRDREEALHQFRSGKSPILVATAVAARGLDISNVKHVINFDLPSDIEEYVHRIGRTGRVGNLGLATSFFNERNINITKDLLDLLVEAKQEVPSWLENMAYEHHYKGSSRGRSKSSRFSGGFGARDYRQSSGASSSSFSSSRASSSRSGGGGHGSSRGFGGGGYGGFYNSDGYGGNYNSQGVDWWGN
Membrane-associated progesterone receptor component 1, sequence (O00264 whole entry): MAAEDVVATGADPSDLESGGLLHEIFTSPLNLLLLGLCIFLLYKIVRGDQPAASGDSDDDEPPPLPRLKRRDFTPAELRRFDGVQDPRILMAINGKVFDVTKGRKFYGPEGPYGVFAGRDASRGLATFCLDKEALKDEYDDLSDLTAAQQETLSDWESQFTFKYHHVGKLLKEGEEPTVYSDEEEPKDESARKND

As a reminder, the Kd is the free concentration of one partner at which half of the binding sites on the other are occupied at equilibrium, for simple one-to-one binding. In the case of `C[C@@H](Oc1cc(C(=O)Nc2ccc(C(=O)N3CCN(C)CC3)cc2)nnc1N)c1c(Cl)ccc(F)c1Cl`, the Kd in assay [1], in assay [2], in assay [3], in assay [4] and in assay [5] was > 30 µM (inactive) in each case.

Regarding `C[C@H]1CNCCCN1S(=O)(=O)c1cccc2cncc(F)c12`, the Kd is > 30 µM (inactive) in assay [6]; > 30 µM (inactive) in assay [1]; > 30 µM (inactive) in assay [2]; > 30 µM (inactive) in assay [3]; > 30 µM (inactive) in assay [4]; 3.7 µM (active) in assay [5].

Take `CCNC(=O)C#Cc1ccc2c(c1)NC(=O)/C2=C(\Nc1ccc(CN(C)C)cc1)c1ccccc1`: the Kd in assay [6], in assay [1], in assay [2], in assay [3], in assay [4] and in assay [5] was > 30 µM (inactive) in each case.

Regarding `C=CC(=O)N1CCC[C@H](n2c(=O)n(-c3ccc(Oc4ccccc4)cc3)c3c(N)ncnc32)C1`, the Kd in assay [6], in assay [1], in assay [2], in assay [3], in assay [4] and in assay [5] was > 30 µM (inactive) in each case.

With `Cc1nc2cc(-c3nn(C(C)C)c4ncnc(N)c34)ccc2o1`, the Kd in assay [6], in assay [1], in assay [2], in assay [3], in assay [4] and in assay [5] was > 30 µM (inactive) in each case.

Take `COCc1c(-c2ccc(NC(=O)Nc3cc(C(F)(F)F)ccc3F)c(F)c2)c2c(N)ncnn2c1CN1CCOCC1`: the Kd in assay [6], in assay [1], in assay [2], in assay [3], in assay [4] and in assay [5] was > 30 µM (inactive) each time.

Turning to `Nc1ncnc2c1c(-c1cccc(OCc3ccccc3)c1)cn2[C@H]1C[C@@H](CN2CCC2)C1` [AEW-541], the Kd in assay [1], in assay [2], in assay [3], in assay [4] and in assay [5] was > 30 µM (inactive) throughout.

For `Cc1nc(NC(=O)N2CCC[C@H]2C(N)=O)sc1-c1ccnc(C(C)(C)C(F)(F)F)c1` [ALPELISIB], the Kd in assay [6], in assay [1], in assay [2], in assay [3], in assay [4] and in assay [5] was > 30 µM (inactive) in each case.

As for `C=CC(=O)Nc1cc2c(Nc3ccc(F)c(Cl)c3)ncnc2cc1C#CC(C)(C)N1CCN(C)CC1` [AV-412 FREE BASE], the Kd in assay [1], in assay [2], in assay [3], in assay [4] and in assay [5] was > 30 µM (inactive) throughout.

Turning to `COc1cc([C@@H]2c3cc4c(cc3[C@H](O)[C@H]3COC(=O)[C@@H]23)OCO4)cc(OC)c1OC` [AXL-1717], the Kd in assay [1], in assay [2], in assay [3], in assay [4] and in assay [5] was > 30 µM (inactive) in each case.

Take `CC(C)(C)c1nc(-c2cccc(NS(=O)(=O)c3c(F)cccc3F)c2F)c(-c2ccnc(N)n2)s1` [DABRAFENIB]: the Kd was > 30 µM (inactive) in assay [6]; > 30 µM (inactive) in assay [1]; > 30 µM (inactive) in assay [2]; > 30 µM (inactive) in assay [3]; 0.034 µM (active) in assay [5].

Regarding `Cc1nc2cc(-n3ncc(C(=O)c4cc5ccccc5[nH]4)c3N)ccc2[nH]1` [FGFR INHIBITOR DEBIO 1347], the Kd in assay [1], in assay [2], in assay [3], in assay [4] and in assay [5] was > 30 µM (inactive) in each case.

Turning to `CN(C[C@@H]1COCCO1)S(=O)(=O)Nc1ccc2ccc3ncc(-c4cnn(C)c4)cc3c(=O)c2c1` [MK-2461], the Kd in assay [1], in assay [2], in assay [3], in assay [4] and in assay [5] was > 30 µM (inactive) each time.

Take `CCCCCCCCCCCCCCCCCCOP(=O)([O-])OC1CC[N+](C)(C)CC1` [PERIFOSINE]: the Kd in assay [1], in assay [2], in assay [3], in assay [4] and in assay [5] was > 30 µM (inactive) each time.

As to `CO[C@H]1C[C@@H]2CC[C@@H](C)[C@@](O)(O2)C(=O)C(=O)N2CCCC[C@H]2C(=O)O[C@H]([C@H](C)C[C@@H]2CC[C@@H](O)[C@H](OC)C2)CC(=O)[C@H](C)/C=C(\C)[C@@H](O)[C@@H](OC)C(=O)[C@H](C)C[C@H](C)/C=C/C=C/C=C/1C` [SIROLIMUS], the Kd in assay [6], in assay [1], in assay [2], in assay [4] and in assay [5] was > 30 µM (inactive) throughout.

As to `C[C@@H](NC(=O)c1ncnc(N)c1Cl)c1ncc(C(=O)Nc2cc(C(F)(F)F)c(Cl)cn2)s1` [TOVORAFENIB], the Kd in assay [1], in assay [2], in assay [3], in assay [4] and in assay [5] was > 30 µM (inactive) each time.

As for `CC(C)c1cc(CNc2nc(Nc3cc(C4CC4)[nH]n3)cc(N3CCN(C)CC3)n2)on1` [XL-228], the Kd in assay [6] was > 30 µM (inactive); in assay [1], > 30 µM (inactive); in assay [2], > 30 µM (inactive); in assay [4], > 30 µM (inactive); in assay [5], 1.37 µM (active).

For `C[C@@H](N)c1ccc(C(=O)Nc2ccnc3[nH]ccc23)cc1` [Y-39983], the Kd in assay [6] is > 30 µM (inactive); in assay [1], > 30 µM (inactive); in assay [2], > 30 µM (inactive); in assay [4], > 30 µM (inactive); in assay [5], 0.572 µM (active).
